Drawing on PubChem BioAssay (NCI), this text covers TGI for eleven molecules.

Among the test systems are 786-0 renal; HCT-116 colon; UACC-257 melanoma; HOP-62 NSCLC; NCI-H460 lung; SK-MEL-28 melanoma; A498 renal; MALME-3M melanoma; A549 NSCLC; IGROV1 ovarian; SK-OV-3 ovarian; OVCAR-5 ovarian.
Holding throughout (assay): NCI-60 cell line screen, 48 h

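Briefly, cells in 96-well plates were exposed to five compound concentrations for 48 h, and endpoints were estimated by linear interpolation. TGI is the concentration that stops growth completely.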

With `O=C(O)c1cc2c(cc1S(=O)(=O)O)C1C(C3C2C2(Cl)C(Cl)=C(Cl)C3(Cl)C2(Cl)Cl)C2(Cl)C(Cl)=C(Cl)C1(Cl)C2(Cl)Cl` (configuration not stated), the TGI was more than 100 µM in the assay on 786-0 renal; 32.3 µM in the assay on HCT-116 colon; more than 100 µM with UACC-257 melanoma; 89.1 µM in the assay with HOP-62 NSCLC; more than 100 µM in the assay with NCI-H460 lung; more than 100 µM in the assay on SK-MEL-28 melanoma. For the same molecule, the TGI in the assay with A498 renal was more than 100 µM; in the assay on MALME-3M melanoma, more than 100 µM; in the assay with A549 NSCLC, more than 100 µM; with IGROV1 ovarian, more than 100 µM; with SK-OV-3 ovarian, more than 100 µM; in the assay on OVCAR-5 ovarian it was 70 µM.

As for `COC(=O)CC1(O)C(C=C(C)C)C(C(=O)OC)C(=O)C(C(=O)OC)C1C(=O)OC` (configuration not stated), the TGI in the assay on 786-0 renal, with HCT-116 colon, in the assay with UACC-257 melanoma, in the assay on HOP-62 NSCLC, with NCI-H460 lung and in the assay on SK-MEL-28 melanoma was more than 100 µM throughout. For the same molecule, the TGI in the assay on A498 renal, in the assay on MALME-3M melanoma, with A549 NSCLC, with IGROV1 ovarian, in the assay on SK-OV-3 ovarian and in the assay with OVCAR-5 ovarian was more than 100 µM in each case.

For `COc1ncc(C#CC(=O)c2ccccc2OC)c(OC)n1`, the TGI in the assay with 786-0 renal came to 3.69 µM; with HCT-116 colon, 9.72 µM; in the assay on UACC-257 melanoma it was 8.79 µM; in the assay with HOP-62 NSCLC, 40.5 µM; with NCI-H460 lung, 15.7 µM; in the assay with SK-MEL-28 melanoma, 8.06 µM. The TGI in the assay on A498 renal was 35.2 µM; in the assay on MALME-3M melanoma, 3.36 µM; with A549 NSCLC, 19 µM; in the assay on IGROV1 ovarian, 3.98 µM; with SK-OV-3 ovarian, more than 60.4 µM; in the assay with OVCAR-5 ovarian, 8.23 µM.

With `COc1cc(/C=C2\CCc3cc(OC)c(OC)cc3C2=O)cc(OC)c1`, the TGI in the assay with 786-0 renal is 48.7 µM; with HCT-116 colon, more than 42.3 µM; in the assay on UACC-257 melanoma, more than 100 µM; in the assay on HOP-62 NSCLC it was more than 87.1 µM; with NCI-H460 lung, more than 100 µM; with SK-MEL-28 melanoma, more than 100 µM. Also, the TGI in the assay on A498 renal was 39.8 µM; in the assay on MALME-3M melanoma it was more than 100 µM; with A549 NSCLC, more than 100 µM; in the assay on IGROV1 ovarian it was more than 100 µM; in the assay on SK-OV-3 ovarian it was more than 100 µM; in the assay with OVCAR-5 ovarian it was 99.3 µM.

Turning to `CC(=O)O/C(=C(/C#N)C(=O)O)C1C(C(=O)O)C(c2ccccc2[N+](=O)[O-])C=C(c2ccco2)N1c1ccncc1` (configuration not stated), the TGI was 6.62 µM in the assay on 786-0 renal; 3.06 µM in the assay on HCT-116 colon; 12 µM in the assay on UACC-257 melanoma; 21.6 µM in the assay on HOP-62 NSCLC; 19.3 µM in the assay with NCI-H460 lung; 23.7 µM in the assay on SK-MEL-28 melanoma. The TGI in the assay with A498 renal turned out to be 25 µM; in the assay with MALME-3M melanoma, 23 µM; in the assay on A549 NSCLC, 26.7 µM; with IGROV1 ovarian, 3.29 µM; in the assay on SK-OV-3 ovarian, 23.9 µM; in the assay on OVCAR-5 ovarian, 27.4 µM.

Regarding `O=C1NC(N/N=C/C(O)C(O)C(O)C(O)CO)=N/C1=C\c1cccs1` (configuration not stated), the TGI in the assay with 786-0 renal, in the assay on HCT-116 colon, in the assay with UACC-257 melanoma, with HOP-62 NSCLC, in the assay with NCI-H460 lung and with SK-MEL-28 melanoma was more than 100 µM each time. In addition, the TGI in the assay with A498 renal, in the assay with MALME-3M melanoma, with A549 NSCLC, in the assay on IGROV1 ovarian, in the assay on SK-OV-3 ovarian and in the assay with OVCAR-5 ovarian was more than 100 µM each time.

Turning to `OCC1CCCCN1Cc1nc2ccc(Cl)cc2[nH]1` (configuration not stated), the TGI with 786-0 renal, in the assay with HCT-116 colon, in the assay with UACC-257 melanoma, in the assay on HOP-62 NSCLC, in the assay with NCI-H460 lung and in the assay with SK-MEL-28 melanoma was more than 100 µM in each case. Further, the TGI in the assay with A498 renal, with MALME-3M melanoma, in the assay on A549 NSCLC, in the assay with IGROV1 ovarian, in the assay with SK-OV-3 ovarian and in the assay on OVCAR-5 ovarian was more than 100 µM throughout.

As to `c1ccc2c(Cc3c[nH]c4ccccc34)c[nH]c2c1`, the TGI in the assay on 786-0 renal is 33.6 µM; in the assay on HCT-116 colon, 31.2 µM; with UACC-257 melanoma it was 34.5 µM; with HOP-62 NSCLC, 33.8 µM; in the assay with NCI-H460 lung it was 40.5 µM; in the assay with SK-MEL-28 melanoma, more than 100 µM. Moreover, the TGI in the assay with A498 renal was more than 100 µM; in the assay with MALME-3M melanoma, 51 µM; in the assay with A549 NSCLC, 57 µM; in the assay on IGROV1 ovarian, 30.7 µM; in the assay with SK-OV-3 ovarian, 51 µM; with OVCAR-5 ovarian, 29.4 µM.

In the case of `CN(C)CCCNC(=O)CNC(=O)c1cc(NC(=O)c2cc(NC(=O)c3cc(NC(=O)CCNC(=O)c4cc(NC(=O)c5cc(NC(=O)c6nccn6C)cn5C)cn4C)cn3C)cn2C)cn1C`, the TGI in the assay with 786-0 renal, with HCT-116 colon, with UACC-257 melanoma, with HOP-62 NSCLC, in the assay on NCI-H460 lung and in the assay on SK-MEL-28 melanoma was more than 100 µM each time. For the same molecule, the TGI with A498 renal, in the assay on MALME-3M melanoma, in the assay with A549 NSCLC, with IGROV1 ovarian, with SK-OV-3 ovarian and with OVCAR-5 ovarian was more than 100 µM in each case.

On to `C(/C=N/NC1=NCCN1)=N\NC1=NCCN1`, for which the TGI in the assay on 786-0 renal, with HCT-116 colon, in the assay on UACC-257 melanoma, in the assay on HOP-62 NSCLC, with NCI-H460 lung and in the assay with SK-MEL-28 melanoma was more than 100 µM in each case. Also, the TGI in the assay on A498 renal, in the assay on MALME-3M melanoma, in the assay on A549 NSCLC, in the assay on IGROV1 ovarian, with SK-OV-3 ovarian and in the assay with OVCAR-5 ovarian was more than 100 µM in each case.

As for `CC(=O)NC1CCC(NC(=O)OC(C)(C)C)C(NC(=O)OC(C)(C)C)C1` (configuration not stated), the TGI with 786-0 renal, in the assay on HCT-116 colon, with UACC-257 melanoma, in the assay with HOP-62 NSCLC, in the assay on NCI-H460 lung and with SK-MEL-28 melanoma was more than 100 µM in each case. In addition, the TGI with A498 renal, in the assay on MALME-3M melanoma, in the assay on A549 NSCLC, in the assay with IGROV1 ovarian, in the assay with SK-OV-3 ovarian and with OVCAR-5 ovarian was more than 100 µM throughout.
